The values that follow come from the METLIN SMRT retention time set (Domingo-Almenara et al. 2019).

Structures are written as SMILES.

This series can be described thus: gradient 5% acetonitrile 3 min, to 50% in 2 min, to 85% in 15 min, held 3 min, 100 µL/min. Particulars: column: Zorbax Extend-C18 2.1 x 50 mm; eluents: water / acetonitrile, 0.1% formic acid. A digest of the protocol: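 Retention time was recorded from adduct peaks, which were picked computationally and each inspected manually. Pure standards ran in mixtures of ~100 molecules on HPLC coupled to a quadrupole time-of-flight mass spectrometer, in positive and negative ionization mode, through a Zorbax Extend-C18 column (2.1 × 50 mm, 1.8 μm) at 100 μL/min. Eluents were water and acetonitrile, each with 0.1% formic acid.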
In turn, `CN(CCc1noc(COc2ccc(Cl)cc2)n1)C(=O)NC(C)(C)C` displayed an RP-LC retention time of 953 s.
Turning to `Cc1ccc(S(=O)(=O)Nc2ccc3c(c2)nc(-c2ccc(C(=O)NC(C)C)cc2)n3C)cc1`, the RP-LC retention time was found to be 695 s.
For `CCc1ccc(-c2cc3c(=O)n(CC(=O)NCC4CCCN4CC)nc(C)n3n2)cc1` (centres undefined), the RP-LC retention time worked out at 713 s.
To `Cn1nccc1C(=O)N1CCN(c2nc3c(S(C)(=O)=O)cccc3s2)CC1` belongs 656 s.
The compound `Cc1[nH]c(C)c(S(=O)(=O)N2CCC(C(=O)Nc3ccc(F)cc3)CC2)c1C(=O)N1CCCC1` yielded an RP-LC retention time of 710 s.
The compound `O=C(Nc1cnc(N2CCCCCC2)nc1)c1cccs1` yielded an RP-LC retention time of 859 s.
In the case of `Cc1nc2cc(-c3noc(-c4ccc5c(c4)OCO5)n3)ccc2n(C)c1=O` it was 920 s.
To `Cn1cc(S(=O)(=O)N2CCCCC2)cc1C(=O)Nc1ccc(F)c(Cl)c1` belongs 1100 s; to `CCOC(=O)c1cc2ccsc2n1CC(=O)Nc1ccc(F)c(F)c1`, 1020 s.
Compound `CCOc1ccc(-c2nnc3ccc(SC(C(C)=O)C(=O)N(C)C)nn23)cc1` (centres undefined) showed an RP-LC retention time of 665 s.
In turn, `COc1cc([C@@H]2c3cc4c(c(O)c3C[C@H]3COC(=O)[C@@H]32)OCO4)cc(OC)c1OC` gave an RP-LC retention time of 620 s.
In the case of `COCCCNC(=O)C1CCCN(S(=O)(=O)c2cc(OC)ccc2OC)C1` (centres undefined) it was 699 s.
Compound `O=C1CCN(C(=O)COc2ccccc2Cl)c2ccccc2N1` had an RP-LC retention time of 718 s.
`CN1C(=O)c2cc(C(=O)NCCCc3ccccc3)nn2CC1(C)C(=O)NCc1ccc(F)cc1` (centres undefined) displayed an RP-LC retention time of 813 s.
`CC1C(=O)NCCN1C(=O)CCSc1ccc(Cl)cc1` (centres undefined): the RP-LC retention time came out at 674 s.
`COc1ccc(N2CCN(c3nc(C(=O)NCC4CCCO4)cs3)CC2)cc1` (centres undefined) had an RP-LC retention time of 821 s.
`COc1cccc(NC(=O)N2CCC3(CC2)NC(=O)c2ccc(F)cc2N3C)c1` returned an RP-LC retention time of 723 s.
As to `Cc1cccc(N2CC(C(=O)NC(C)C)CC2=O)c1` (centres undefined), the RP-LC retention time worked out at 678 s.
Consider `COCc1cn(CC2CCCN(Cc3cn(C)c4ccc(OC)cc34)C2)nn1` (centres undefined), for which the RP-LC retention time was 600 s.
`Cc1nn(CC(=O)N2CCCC2)c(=O)c2nc(C(C)C)sc12` displayed an RP-LC retention time of 680 s.
On to `COC(=O)c1cc(OCC(=O)Nc2ccc(OC)c(Cl)c2)c2ccccc2n1`, for which the RP-LC retention time was found to be 812 s.
Regarding `CCCc1c(C)nc2ncnn2c1N1CCN(c2ccccn2)CC1`, the RP-LC retention time turned out to be 583 s.
Compound `CCC(C)C(=O)N1CC(N(Cc2ccncc2)CC(C)C)C1` (centres undefined) returned an RP-LC retention time of 635 s.
In the case of `Cc1ccc(NC(=O)Cn2nc(N3CCCCCC3)c3ccccc3c2=O)c(C)c1` it was 1100 s.
Regarding `Cc1[nH]c(C(=O)N2CCCC(C(=O)NCc3ccc(N(C)C)cc3)C2)c(C)c1C(=O)OC(C)C` (centres undefined), the RP-LC retention time is 681 s.
In turn, `CN(C)c1ccc(CNC(=O)C2CCN(S(=O)(=O)c3cn(C)cn3)CC2)cc1` gave an RP-LC retention time of 550 s.
`Cc1nnc(NC(=O)CSc2nnc(C3COc4ccccc4O3)o2)s1` (centres undefined) showed an RP-LC retention time of 699 s.
The compound `CCc1nc(-c2csc(S(=O)(=O)N3CCC(C(=O)Nc4ccc(C)cc4C)CC3)c2)no1` returned an RP-LC retention time of 1090 s.
In the case of `Cc1ccc(-c2csc3c(=O)n(CC(=O)N4CCOc5ccc(C)cc54)cnc23)cc1` it was 1120 s; in that of `O=C(Nc1ccc(F)cc1F)NC1CCN(c2ccc(F)cc2)C1=O` (centres undefined), 823 s; in that of `O=C(NCc1cccs1)C1CCN(S(=O)(=O)c2cc(C(=O)N3CCOCC3)cs2)CC1`, 803 s.
Take `Cc1cc(N2CCC(NC(=O)Nc3ccc(C)c(F)c3)C2=O)ccc1F` (centres undefined): the RP-LC retention time came to 900 s.
With `O=C(c1ccco1)N1CC(Oc2ccc(-c3nc(-c4ccccc4)no3)cc2)C1`, the RP-LC retention time was determined as 856 s.
`O=c1c(S(=O)(=O)N2CCCC2)cccn1Cc1cccc(Cl)c1`: the RP-LC retention time turned out to be 902 s.
`CCN1CCn2cc(S(=O)(=O)Nc3ccccc3OC)cc2C1=O` returned an RP-LC retention time of 690 s.
To `O=C(c1ccc2ccnc(N3CCN(c4ccccc4)CC3)c2c1)N1CCN(c2ccccn2)CC1` belongs 616 s; to `CCc1ccc(S(=O)(=O)c2cnc3ccc(OC)cc3c2N2CCN(C)CC2)cc1`, 653 s.
Regarding `COC(=O)C1=CN(c2ccccc2)c2cc(F)ccc2S1(=O)=O`, the RP-LC retention time worked out at 787 s.
`O=C(Cn1c(C(F)(F)F)nc2ccccc21)NCc1ccc2c(c1)OCCCO2` gave an RP-LC retention time of 804 s.
In the case of `NC(=O)c1cc[nH]c1C1CCCN(Cc2ccc(Br)o2)C1` (centres undefined) it was 594 s; in that of `CC1CN(Cc2nc3c(c(=O)n(C)c(=O)n3C)n2CC(=O)c2ccccc2)CC(C)O1` (centres undefined), 624 s.
Turning to `Cc1ccc2c(c1)N(C(=O)Cn1ccc3ccn(Cc4ccccc4)c3c1=O)CCO2`, the RP-LC retention time turned out to be 853 s.
Compound `COc1ccc(NC2=NS(=O)(=O)C(c3ccccc3)=C2C)c(OC)c1` had an RP-LC retention time of 910 s.
`CCN(CC)C(=O)c1cnc2snc(C)c2c1N1CCC(C(=O)Nc2cc(OC)c(OC)c(OC)c2)CC1` showed an RP-LC retention time of 810 s.
The compound `Cc1cnn(Cc2nc(-c3ccc(NC(=O)C4CCCCC4)cc3)oc2C)c1` showed an RP-LC retention time of 881 s.
As to `CC1Cc2ccccc2N1C(=O)CCC(=O)N1CCCN(c2cc(=O)n(C)c(=O)n2C)CC1` (centres undefined), the RP-LC retention time turned out to be 677 s.
Regarding `CCC(C)NC(=O)c1cc2n(n1)CCCN(Cc1cccc(C)c1)C2=O` (centres undefined), the RP-LC retention time came to 851 s.
On to `CCN(CC)S(=O)(=O)c1cccc(-c2nnc(-c3ccc(Cl)cc3)o2)c1`, for which the RP-LC retention time is 1140 s.
For the compound `CCN1CCCC1CNC(=O)C1c2ccccc2C(=O)N(CCOC)C1c1ccc(F)cc1` (centres undefined), the RP-LC retention time was determined as 640 s.
In the case of `Cc1csc(-c2cc(S(=O)(=O)NC(C)(C)C)cn2CC(=O)N2CCCC2)n1`, the RP-LC retention time is 1160 s.
In turn, `CCOC(=O)C(=O)Cc1nc2ccccc2s1` displayed an RP-LC retention time of 871 s.
To `CC(C)OCCCNC(=O)c1ccc2cnn(Cc3ccc(F)cc3)c2c1` belongs 656 s.
In the case of `CCc1cc(=O)n(CC(=O)Nc2ccc3c(c2)OCCO3)c(-c2cccc(F)c2)n1`, the RP-LC retention time was 1090 s.
To `O=C(Cc1ccccc1Cl)NCCn1cnc(-c2ccccc2)cc1=O` belongs 715 s.
In the case of `Cc1ccc(CNC(=O)N2CC(n3cc(COc4ccc(F)cc4)nn3)C2)cc1` it was 821 s; in that of `Clc1cccc(CSc2nnc(-c3ccc(Br)cc3)o2)c1`, 1260 s.
In the case of `CCN1C(=O)C2(CCN(S(=O)(=O)c3ccc(Cl)c(C)c3)CC2)c2ccccc21` it was 1100 s; in that of `O=C(C1CC1)N1CCN(c2nc(CN3CCCCCC3)cs2)CC1`, 1100 s; in that of `CCCc1nc(-c2c(C)cc(C)nc2NC(=O)c2ccccc2F)no1`, 883 s.
`CCOc1ccc(CC(=O)N2CCN(S(=O)(=O)c3cc4c5c(c3)CCC(=O)N5CCC4)CC2)cc1`: the RP-LC retention time turned out to be 823 s.
`O=C(CNS(=O)(=O)Cc1ccccc1)N1CCOC(c2ccccc2)C1` (centres undefined) returned an RP-LC retention time of 784 s.
The compound `Cc1cc(NC(=O)CN2CCc3ccccc3C2C(=O)N2CCCCC2)ccc1F` (centres undefined) gave an RP-LC retention time of 964 s.
Regarding `COc1ccc(N2CCN(C(=O)c3ccc4c(c3)N(C)C(=O)C3CCCCN43)CC2)cc1` (centres undefined), the RP-LC retention time turned out to be 832 s.
`Cc1ccc(C)c(CNS(=O)(=O)c2cc(-c3csc(C)n3)sc2C)c1`: the RP-LC retention time stood at 1100 s.
As to `O=C(CCCOc1ccc(Cl)cc1Cl)Nc1nc(-c2ccccc2)cs1`, the RP-LC retention time was 1210 s.
Consider `CC(C)Cn1cc(S(=O)(=O)Nc2cccc(C#N)c2)c2cccnc21`, for which the RP-LC retention time came out at 916 s.
On to `O=C(c1ccsc1)N1CCC(Cc2nnc(-c3ccccc3)o2)CC1`, for which the RP-LC retention time is 774 s.
In the case of `Cc1cccc(NC(=O)N2[C@H]3CC[C@@H]2c2cncnc2C3)c1` it was 674 s; in that of `O=C(CCc1nc(C2=CCN(Cc3ccc(Cl)cc3)CC2)no1)NCc1cccs1`, 688 s; in that of `CC12CC(Br)(Br)C(=O)C3C1CCCC32`, 1100 s.
For `Cc1ccc(C(=O)N2CCN(c3nc(CN4CCC(C)CC4)cs3)CC2)cc1F`, the RP-LC retention time came to 688 s.
For the compound `CCOC(=O)CCNC(=O)N1CCC(N2CCN(Cc3ccc(C)cc3)C(=O)C2=O)CC1`, the RP-LC retention time amounted to 681 s.
In the case of `Cc1nc2cc(-c3ccccc3)nn2c(C)c1CCC(=O)N1CCN(c2ccccn2)CC1` it was 652 s.
In the case of `Cc1ccc(C(=O)N2CCCCCCNC(=O)[C@@H]3CCC[C@@H]32)s1` it was 792 s; in that of `Cc1nn(-c2ccccc2)c(C)c1S(=O)(=O)N1CCC(C(=O)Nc2ccccc2F)CC1`, 950 s; in that of `CCOC(=O)c1ccccc1NC(=O)CSc1nnc2c3cc(-c4ccc(C)cc4)nn3ccn12`, 1080 s.
For the compound `COc1ccc(NC(=O)Cn2c(=O)c3cc(C4CC4)nn3c3ncccc32)c(OC)c1`, the RP-LC retention time is 772 s.
In turn, `COc1ccc(CNC(=O)C2CCCN(c3ccc(=O)n(-c4cccc(Cl)c4)n3)C2)cc1OC` (centres undefined) returned an RP-LC retention time of 798 s.
In the case of `CC(C)n1c(=O)sc2cc(S(=O)(=O)N3CCC(C(=O)NC4CCCCCCC4)CC3)ccc21` it was 1040 s.
